Measurements reported in US20070275911A1, “Targeted Drug-Formaldehyde Conjugates and Methods of Making and Using the Same” (priority 2003, published 2007).
Like-named read-outs stand apart in the source and are kept apart here.

Columns and labels:
PC3/AR and PC3/neo cells = settings: for intracellular distribution of fluorescence over time: 3 h treatment / over time
Method: The fluorescence of doxorubicin can be monitored in order to determine the rate of uptake and intracellular distribution of the anthraquinone fluorophore.
This cell suspension was dispensed in 2 mL aliquots into 6-well tissue culture plates. Plates were then incubated for 36 h at 37° C. in a humidified atmosphere of 5% CO2 and 95% air. The medium was replaced with 1 mL of phenol red-free RPMI 1640 growth medium supplemented with 10% dextran-coated charcoal stripped FBS prior to addition of the test compound. The appropriate compound was dissolved in DMSO and the concentration was adjusted to 50-200 μM by measuring the solution absorbance at 480 nm. Addition of 10 μL of the appropriate doxorubicin or prodrug solution was followed by incubation at 37° C. as indicated. The drug solution in individual wells was removed at the appropriate time and the cells were washed with 1 mL of the phenol red-free growth medium. The washed cells were then supplemented with 1 mL of phenol-red free growth medium for imaging.

[1] = Hydrolysis of anthracycline-formaldehyde N-Mannich bases followed by HPLC; settings: for stability under AR binding assay conditions: reaction buffer, 30 min incubation at 4° C., HPLC
Method: The area under the curve for the N-Mannich base was determined at each time point and was used to establish the kinetics of decomposition, using regression software. Hydrolysis of AOM-doxsaliform was carried out in pH 8.0 100 mM sodium phosphate buffer at 37° C. AOM-doxsaliform was dissolved in 48.0 μL DMSO and this solution was diluted into phosphate buffer to give 4.8 mL of an […] solution containing 1% DMSO. To this solution was added 6 μL of pig liver esterase (0.8 units/μL; Sigma; Milwaukee, Wis.) to achieve a final concentration of 1.0 units/mL. […] Brief centrifugation served to pellet the insoluble fraction. The drug solution was then transferred to a round bottom flask and concentrated by brief rotary-evaporation at 20° C. Reverse phase HPLC was used to analyze the extent of hydrolysis.
Hydrolysis of the N-Mannich bases, prepared from either doxorubicin or daunorubicin and the respective amides, at 37° C. in pH 7.4 triethylammonium acetate (TEAA) buffer (20 mM) containing 10-30% MeOH was monitored by reverse phase HPLC. […] Identification of a less robust construct that could be used to rapidly deliver the active Schiff base metabolite of doxorubicin to a growing tumor was undertaken.

AR-GFP receptor = type: cell-based; settings: for inhibition of the action of 1.0 nM Mibolerone on AR-GFP: co-treatment with 1.0 nM Mibolerone
Method: PC3 cells were, therefore, grown in 6 well plates and transiently transfected with a plasmid containing the AR-GFP construct obtained from Dr. Arun Roy (UTHSC; San Antonio, Tex.).
This cell suspension was dispensed in 2 mL aliquots into 6-well tissue culture plates. […] To each solution was added 2 μL of a 800 μg/mL solution of the pEGFP-C2 rcAR plasmid in Millipore water. After gentle mixing, the transfection cocktail was allowed to incubate at room temperature for 40 min. […] The growth medium was again replaced with 1 mL of phenol red-free RPMI supplemented with dextran-coated charcoal-stripped FBS. Candidate AR-GFP expressing cells in each well were identified and marked before an appropriate concentrations of the test compounds were added in 10 μL of sterile DMSO.

human AR = molecular target: T1, human AR (Homo sapiens, UniProt P10275); assay: biochemical; type: binding
T1 construct: expressed in transfected cells; host or cells: PC3/AR cells (gift of Dr. Kerry Burnstein, University of Miami); cytosolic fraction of sonicated lysate
T1 sequence (P10275 1-920): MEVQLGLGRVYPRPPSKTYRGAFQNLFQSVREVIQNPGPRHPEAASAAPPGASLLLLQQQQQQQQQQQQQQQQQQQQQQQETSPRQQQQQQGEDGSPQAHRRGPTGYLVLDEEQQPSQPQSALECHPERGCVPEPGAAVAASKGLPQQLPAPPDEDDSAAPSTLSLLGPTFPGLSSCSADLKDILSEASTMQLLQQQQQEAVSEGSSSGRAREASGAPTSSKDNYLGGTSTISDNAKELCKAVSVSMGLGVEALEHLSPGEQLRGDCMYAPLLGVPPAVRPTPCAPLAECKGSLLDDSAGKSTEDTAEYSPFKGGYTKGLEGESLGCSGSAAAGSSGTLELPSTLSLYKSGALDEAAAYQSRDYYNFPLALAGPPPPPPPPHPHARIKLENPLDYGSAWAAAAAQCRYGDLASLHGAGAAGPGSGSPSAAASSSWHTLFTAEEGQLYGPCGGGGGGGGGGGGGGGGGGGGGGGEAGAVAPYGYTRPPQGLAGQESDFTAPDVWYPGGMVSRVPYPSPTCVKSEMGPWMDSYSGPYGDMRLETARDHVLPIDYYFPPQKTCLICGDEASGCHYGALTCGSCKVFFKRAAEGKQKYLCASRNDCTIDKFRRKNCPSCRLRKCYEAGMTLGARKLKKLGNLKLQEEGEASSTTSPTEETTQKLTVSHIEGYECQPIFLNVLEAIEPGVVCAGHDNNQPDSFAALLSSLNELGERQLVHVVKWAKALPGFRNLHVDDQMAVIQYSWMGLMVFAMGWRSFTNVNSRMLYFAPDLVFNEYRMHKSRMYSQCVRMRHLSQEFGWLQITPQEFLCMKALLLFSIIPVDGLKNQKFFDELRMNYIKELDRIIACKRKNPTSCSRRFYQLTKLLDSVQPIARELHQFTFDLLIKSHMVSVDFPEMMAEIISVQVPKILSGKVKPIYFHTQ

estrogen receptor = molecular target: T2, estrogen receptor (Homo sapiens, UniProt P03372); assay: Estrogen receptor competitive binding assay (3H-E2, MCF-7 cell lysate); settings: relative to E/Z-4-OHT = 100
T2 construct: endogenous in cells; host or cells: MCF-7 cells (ATCC); 225,000 g supernatant of sonicated lysate
T2 sequence (P03372 whole entry): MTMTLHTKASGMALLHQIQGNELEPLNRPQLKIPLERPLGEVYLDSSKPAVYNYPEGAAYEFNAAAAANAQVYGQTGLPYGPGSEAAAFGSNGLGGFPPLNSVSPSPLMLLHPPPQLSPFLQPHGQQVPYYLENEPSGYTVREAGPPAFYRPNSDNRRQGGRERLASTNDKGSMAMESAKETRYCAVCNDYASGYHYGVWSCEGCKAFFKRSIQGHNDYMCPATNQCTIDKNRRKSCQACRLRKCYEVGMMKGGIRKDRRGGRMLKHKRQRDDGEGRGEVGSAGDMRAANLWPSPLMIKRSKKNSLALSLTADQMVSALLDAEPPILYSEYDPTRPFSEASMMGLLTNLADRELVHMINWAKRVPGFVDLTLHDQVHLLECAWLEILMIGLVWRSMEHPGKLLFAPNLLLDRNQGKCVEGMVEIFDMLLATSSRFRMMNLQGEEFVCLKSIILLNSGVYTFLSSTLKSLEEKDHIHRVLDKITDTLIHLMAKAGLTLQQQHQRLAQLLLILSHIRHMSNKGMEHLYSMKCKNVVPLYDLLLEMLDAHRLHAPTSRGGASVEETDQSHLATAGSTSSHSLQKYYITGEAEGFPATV

[2] = relative binding affinity (Table 4, Example 3 numbering)
[3] = vs 1.0 nM 3H-Mibolerone, PC3/AR cell lysate, 4° C. (Table 4, Example 3 numbering)
[4] = vs 1.0 nM 3H-Mibolerone, PC3/AR cell lysate, 4° C., 30 min (Table 3, Example 2 numbering)

SMILES | nuclear translocation of AR-GFP (AR-GFP receptor; concentration not given) | RBA (human AR) | RBA (human AR; [2]) | IC50 (human AR; [3]) | IC50 (human AR; [4]) | also measured
COc1cccc2c1C(=O)c1c(O)c3c(c(O)c1C2=O)C[C@@](O)(C(=O)CO)C[C@@H]3O[C@H]1C[C@H](NCNC(=O)c2ccccc2OCOC(C)=O)[C@H](O)[C@H](C)O1 [AOM-doxsaliform, N-[(2-Acetoxymethyloxy)-benzamidomethyl]-doxorubicin] | – | – | – | – | – | intracellular distribution of fluorescence over time (PC3/AR and PC3/neo cells): accumulate, at least to some extent over time (>3 h), in the nuclei; release of doxorubicin from acetoxymethylene-protected derivative ([1]; 37° C., pH 7.3 RPMI 1640, 3 h of observation): no hydrolysis was evident
CC1(C)C(=O)N(c2ccc(C#N)c(C(F)(F)F)c2)C(=O)N1CCCCN1CCN(CCOCc2ccc(O)c(C(N)=O)c2)CC1 [12a, 5-[2-(4-{4-[3-(4-Cyano-3-trifluoromethyl-phenyl)-5,5-dimethyl-2,4-dioxo-imidazolidin-1-yl]-butyl}-piperazin-1-yl)-ethoxymethyl]-2-hydroxy-benzamide] | does not instigate translocation | <1 | <1 | > 1000 nM | – | inhibition of the action of 1.0 nM Mibolerone on AR-GFP (AR-GFP receptor): not capable of inhibiting the action of 1.0 nM Mibolerone
CCC(=C(c1ccc(O)cc1)c1ccc(OCCN(C)CCON=Cc2ccc(O)c(C(N)=O)c2)cc1)c1ccccc1 [10a] | – | – | – | – | – | RBA^OHT (estrogen receptor): 1.7
CC1(C)C(=O)N(c2ccc(C#N)c(C(F)(F)F)c2)C(=O)N1CCOCCOCc1ccc(O)c(C(N)=O)c1 [8a, 5-(2-{2-[3-(4-Cyano-3-trifluoromethyl-phenyl)-5,5-dimethyl-2,4-dioxo-imidazolidin-1-yl]-ethoxy}-ethoxymethyl)-2-hydroxy-benzamide] | – | – | – | 77 nM | 77 nM | –
CCCC(=O)OCOc1ccc(COCC#CCN2C(=O)N(c3ccc(C#N)c(C(F)(F)F)c3)C(=O)C2(C)C)cc1C(=O)NCNC1CC(OC2CC(O)(C(=O)CO)Cc3c(O)c4c(c(O)c32)C(=O)c2c(OC)cccc2C4=O)OC(C)C1O (stereo not drawn) [compound 10, N-(5-{4-[3-(4-Cyano-3-trifluoromethyl-phenyl)-5,5-dimethyl-2,4-dioxo-imidazolidin-1-yl]-but-2-ynyloxymethyl}-2-butyryloxymethoxybenzamidomethyl)-doxorubicin] | – | – | 14 | 63 nM | – | intracellular distribution of fluorescence over time (PC3/AR and PC3/neo cells): remains primarily cytosolic over time; initial intracellular distribution of fluorescence (PC3/AR and PC3/neo cells; upon initial treatment, 500 nM): predominantly cytosolic; nuclear translocation of AR-GFP (AR-GFP receptor; 1.0 μM (up to)): did not instigate translocation into the nucleus; inhibition of the action of 1.0 nM Mibolerone on AR-GFP (AR-GFP receptor): did serve to inhibit the action of 1.0 nM Mibolerone; stability under AR binding assay conditions [1]: stable under the assay conditions
CCC(=C(c1ccc(O)cc1)c1ccc(OCCN(C)CCOCCOCCON=Cc2ccc(O)c(C(N)=O)c2)cc1)c1ccccc1 [10c] | – | – | – | – | – | RBA^OHT (estrogen receptor): 3.3
COc1cccc2c1C(=O)c1c(O)c3c(c(O)c1C2=O)C[C@@](O)(C(=O)CO)C[C@@H]3OC1C[C@H](NCNC(=O)c2cc(COCC#CCN3C(=O)N(c4ccc(C#N)c(C(F)(F)F)c4)C(=O)C3(C)C)ccc2O)[C@H](O)[C@H](C)O1 (stereo partly drawn) [compound 13, N-(5-{4-[3-(4-Cyano-3-trifluoromethyl-phenyl)-5,5-dimethyl-2,4-dioxo-imidazolidin-1-yl]-but-2-ynyloxymethyl)-2-hydroxy-benzamidomethyl)-doxorubicin] | – | 10 | 10 | – | – | intracellular distribution of fluorescence over time (PC3/AR and PC3/neo cells): primarily localized to the nucleus; stability under AR binding assay conditions [1]: no appreciable hydrolysis; stability under AR binding assay conditions ([1]; listed as 9): stable under the assay conditions; IC50 (human AR): 90 nM
CC1(C)NC(=O)N(c2ccc(C#N)c(C(F)(F)F)c2)C1=O [2f, 4-(4,4-Dimethyl-2,5-dioxo-imidazolidin-1-yl)-2-trifluoromethylbenzonitrile] | induce partial translocation | 150 | – | – | – | IC50 (human AR): 6 nM; RBA as fraction of nilutamide binding (human AR): 150%
C[C@@H]1CC2=CC(=O)CC[C@@H]2[C@H]2CC[C@@]3(C)[C@@H](CC[C@]3(C)O)[C@@H]21 [Mibolerone, reference compound] | – | – | – | – | – | nuclear translocation of AR-GFP (AR-GFP receptor; 1.0 nM): causes nuclear translocation of the AR-GFP receptor
CCCC(=O)OCOc1ccc(COCC#CCN2C(=O)N(c3ccc(C#N)c(C(F)(F)F)c3)C(=O)C2(C)C)cc1C(N)=O [6b] | causing nuclear translocation of the AR upon binding | – | – | – | – | –
CC1(C)C(=O)N(c2ccc(C#N)c(C(F)(F)F)c2)C(=O)N1CCOCCN1CCN(CCOCc2ccc(O)c(C(N)=O)c2)CC1 [12b] | does not instigate translocation | 3 | 3 | 346 nM | 346 nM | inhibition of the action of 1.0 nM Mibolerone on AR-GFP (AR-GFP receptor): not capable of inhibiting the action of 1.0 nM Mibolerone
CC1(C)C(=O)N(c2ccc(C#N)c(C(F)(F)F)c2)C(=O)N1CC#CCOCc1ccc(O)c(C(N)=O)c1 [8c, 5-{4-[3-(4-Cyano-3-trifluoromethyl-phenyl)-5,5-dimethyl-2,4-dioxo-imidazolidin-1-yl]-but-2-ynyloxymethyl}-2-hydroxy-benzamide] | – | – | – | – | 49 nM | –
CC1(C)C(=O)N(c2ccc(C#N)c(C(F)(F)F)c2)C(=O)N1CCOCCOCCOCc1ccc(O)c(C(N)=O)c1 [8b, 5-[2-(2-{2-[3-(4-Cyano-3-trifluoromethyl-phenyl)-5,5-dimethyl-2,4-dioxo-imidazolidin-1-yl]-ethoxy}-ethoxy)-ethoxymethyl]-2-hydroxy-benzamide] | – | – | – | 332 nM | 332 nM | –
